Laboratory results taken from patent US8999982B2, “Pharmaceutically active compounds as Axl inhibitors” (Lead Discovery Center GmbH, priority 2010, dated 2015).

Key:
[1] = target: T1, Axl (Homo sapiens (Human), UniProt P30530); assay: Axl binding assay
Description: Binding of the tracer to the kinase is detected using an EU-labeled anti-tag antibody. […] Binding of an inhibitor to the kinase competes for binding with the tracer, resulting in a loss of FRET-signal. At first a compound according to formula (I) was diluted in 20 mM Hepes pH 8.0, 1 mM DTT, 10 mM MgCl2 and 0.01% Brij35.

[2] = target: T1, Axl; assay: Cellular Axl phosphorylation assay; type: cell-based; conditions: HEK293 cells transfected with Axl cDNA, 1 hour incubation
Description: 3. Cellular Axl Phosphorylation Assay:
HEK293 embryonal kidney fibroblasts were transfected in 96 wells with a plasmid containing Axl cDNA. As transfection reagent Superfect (Qiagen) was used. Transfection of the sole vector backbone served as negative control of Axl expression. After overnight incubation the cellular supernatant was replaced with fresh medium. On the following day the Axl-expressing cells were incubated for 1 hour with a compound according to formula (I) at the suitable concentrations. […] The mesoscale technology was used for quantification.

T1 sequence (P30530 26-894): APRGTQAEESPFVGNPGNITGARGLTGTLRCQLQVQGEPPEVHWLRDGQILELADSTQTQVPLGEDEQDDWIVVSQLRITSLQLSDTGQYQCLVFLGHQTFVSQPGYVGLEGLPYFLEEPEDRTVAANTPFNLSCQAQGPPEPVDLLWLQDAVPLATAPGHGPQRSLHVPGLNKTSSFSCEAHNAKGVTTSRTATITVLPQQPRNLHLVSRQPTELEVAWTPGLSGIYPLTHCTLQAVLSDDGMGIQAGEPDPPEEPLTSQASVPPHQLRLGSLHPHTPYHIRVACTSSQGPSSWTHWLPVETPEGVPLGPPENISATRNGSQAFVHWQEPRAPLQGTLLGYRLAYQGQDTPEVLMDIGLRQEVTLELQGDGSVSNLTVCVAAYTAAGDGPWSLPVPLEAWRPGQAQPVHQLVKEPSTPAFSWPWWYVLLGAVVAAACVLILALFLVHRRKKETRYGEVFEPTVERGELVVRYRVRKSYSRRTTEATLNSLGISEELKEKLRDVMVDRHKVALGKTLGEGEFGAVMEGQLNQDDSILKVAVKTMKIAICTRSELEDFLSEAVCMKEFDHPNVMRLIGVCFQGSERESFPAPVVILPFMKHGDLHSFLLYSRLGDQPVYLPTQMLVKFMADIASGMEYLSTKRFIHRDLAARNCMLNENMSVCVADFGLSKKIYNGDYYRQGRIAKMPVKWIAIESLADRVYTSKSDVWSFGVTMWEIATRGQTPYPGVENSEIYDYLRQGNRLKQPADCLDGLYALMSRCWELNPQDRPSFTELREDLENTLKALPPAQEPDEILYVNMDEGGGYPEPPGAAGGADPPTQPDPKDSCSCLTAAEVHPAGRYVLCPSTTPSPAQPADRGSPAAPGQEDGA

SMILES	IC50 [1] [nM]	IC50 [2] [nM]
COc1cc2nccc(Oc3ccc(NC(=O)c4nn(-c5ccc(F)cc5)cc4OCCN(C)C)cc3F)c2cc1OC [Example 19, N-[4-[(6,7-dimethoxy-4-quinolyl)oxy]-3-fluoro-phenyl]-4-(2-dimethylaminoethoxy)-1-(4-fluorophenyl)pyrazole-3-carboxamide]	< 500	< 500
COc1cc2nccc(Oc3ccc(NC(=O)c4nn(-c5ccc(F)cc5)cc4OCCCN(C)C)cc3F)c2cc1OC [Example 20, N-[4-[(6,7-dimethoxy-4-quinolyl)oxy]-3-fluoro-phenyl]-4-(3-dimethylaminopropoxy)-1-(4-fluorophenyl)pyrazole-3-carboxamide]	500 to 5000	500 to 5000
COc1cc2nccc(Oc3ccc(NC(=O)c4nn(-c5ccc(F)cc5)cc4OC(C)C)cc3F)c2cc1OC [Example 21, N-[4-[(6,7-dimethoxy-4-quinolyl)oxy]-3-fluoro-phenyl]-1-(4-fluorophenyl)-4-isopropoxy-pyrazole-3-carboxamide]	< 500	< 500
CCOc1cn(-c2ccc(F)cc2Cl)nc1C(=O)Nc1ccc(Oc2ccnc3cc(OC)c(OC)cc23)c(F)c1 [Example 23, 1-(2-chloro-4-fluoro-phenyl)-N-[4-[(6,7-dimethoxy-4-quinolyl)oxy]-3-fluoro-phenyl]-4-ethoxy-pyrazole-3-carboxamide]	< 500	< 500
CCOc1cn(-c2ccc(F)cc2)nc1C(=O)Nc1ccc(Oc2ccnc3cc(OC)c(OC)cc23)cc1 [Example 24, N-[4-[(6,7-dimethoxy-4-quinolyl)oxy]phenyl]-4-ethoxy-1-(4-fluorophenyl)pyrazole-3-carboxamide]	< 500	< 500
COc1cc2nccc(Oc3ccc(NC(=O)c4nn(-c5ccc(F)cc5)cc4OC(C)C)cc3)c2cc1OC [Example 25, N-[4-[(6,7-dimethoxy-4-quinolyl)oxy]phenyl]-1-(4-fluorophenyl)-4-isopropoxy-pyrazole-3-carboxamide]	< 500	< 500
COc1cc2nccc(Oc3ccc(NC(=O)c4nn(-c5ccc(F)cc5)cc4OCC4CC4)cc3)c2cc1OC [Example 26, 4-(cyclopropylmethoxy)-N-[4-[(6,7-dimethoxy-4-quinolyl)oxy]phenyl]-1-(4-fluorophenyl)pyrazole-3-carboxamide]	< 500	< 500
CCOc1cn(-c2ccc(F)cc2C)nc1C(=O)Nc1ccc(Oc2ccnc3cc(OC)c(OC)cc23)cc1 [Example 27, N-[4-[(6,7-dimethoxy-4-quinolyl)oxy]phenyl]-4-ethoxy-1-(4-fluoro-2-methyl-phenyl)pyrazole-3-carboxamide]	< 500	< 500
CCOc1cn(-c2ccc(F)cc2)nc1C(=O)Nc1ccc(Oc2ccnc3cc(OC)c(OC)cc23)c(C)c1 [Example 28, N-[4-[(6,7-dimethoxy-4-quinolyl)oxy]-3-methyl-phenyl]-4-ethoxy-1-(4-fluorophenyl)pyrazole-3-carboxamide]	< 500	< 500
COc1cc2nccc(Oc3ccc(NC(=O)c4nn(-c5ccc(F)cc5)cc4OC(C)C)cc3C)c2cc1OC [Example 29, N-[4-[(6,7-dimethoxy-4-quinolyl)oxy]-3-methyl-phenyl]-1-(4-fluorophenyl)-4-isopropoxy-pyrazole-3-carboxamide]	< 500	< 500
COc1cc2nccc(Oc3ccc(NC(=O)c4nn(-c5ccc(F)cc5)cc4OCC4CC4)cc3C)c2cc1OC [Example 30, 4-(cyclopropylmethoxy)-N-[4-[(6,7-dimethoxy-4-quinolyl)oxy]-3-methyl-phenyl]-1-(4-fluorophenyl)pyrazole-3-carboxamide]	< 500	< 500
CCOc1cn(-c2ccc(F)cc2C)nc1C(=O)Nc1ccc(Oc2ccnc3cc(OC)c(OC)cc23)c(C)c1 [Example 31, N-[4-[(6,7-dimethoxy-4-quinolyl)oxy]-3-methyl-phenyl]-4-ethoxy-1-(4-fluoro-2-methyl-phenyl)pyrazole-3-carboxamide]	< 500	< 500
CCOc1cn(-c2ccc(F)cc2)nc1C(=O)Nc1ccc(Oc2ccnc3cc(OC)c(OC)cc23)c(Cl)c1 [Example 32, N-[3-chloro-4-[(6,7-dimethoxy-4-quinolyl)oxy]phenyl]-4-ethoxy-1-(4-fluorophenyl)pyrazole-3-carboxamide]	< 500	< 500
COc1cc2nccc(Oc3ccc(NC(=O)c4nn(-c5ccc(F)cc5)cc4OC(C)C)cc3Cl)c2cc1OC [Example 33, N-[3-chloro-4-[(6,7-dimethoxy-4-quinolyl)oxy]phenyl]-1-(4-fluorophenyl)-4-isopropoxy-pyrazole-3-carboxamide]	< 500	< 500
COc1cc2nccc(Oc3ccc(NC(=O)c4nn(-c5ccc(F)cc5)cc4OCC4CC4)cc3Cl)c2cc1OC [Example 34, N-[3-chloro-4-[(6,7-dimethoxy-4-quinolyl)oxy]phenyl]-4-(cyclopropylmethoxy)-1-(4-fluorophenyl)pyrazole-3-carboxamide]	< 500	< 500
CCOc1cn(-c2ccc(F)cc2C)nc1C(=O)Nc1ccc(Oc2ccnc3cc(OC)c(OC)cc23)c(Cl)c1 [Example 35, N-[3-chloro-4-[(6,7-dimethoxy-4-quinolyl)oxy]phenyl]-4-ethoxy-1-(4-fluoro-2-methyl-phenyl)pyrazole-3-carboxamide]	< 500	< 500
COc1cc2nccc(Oc3ccc(NC(=O)c4nn(-c5ccc(F)cc5)cc4CCN(C)C)cc3F)c2cc1OC [Example 36, N-(4-((6,7-dimethoxyquinolin-4-yl)oxy)-3-fluorophenyl)-4-(2-(dimethylamino)ethyl)-1-(4-fluorophenyl)-1H-pyrazole-3-carboxamide]	< 500	< 500
CCOc1cn(-c2ccc(F)cc2CCN(C)C)nc1C(=O)Nc1ccc(Oc2ccnc3cc(OC)c(OC)cc23)c(F)c1 [Example 37, N-[4-[(6,7-dimethoxy-4-quinolyl)oxy]-3-fluoro-phenyl]-1-[2-(2-dimethylaminoethyl)-4-fluoro-phenyl]-4-ethoxy-pyrazole-3-carboxamide]	< 500	< 500
COc1cc2c(Oc3ccc(NC(=O)c4csc(-c5ccccc5)n4)cc3F)ccnc2cc1OCCCN1CCOCC1 [Example 38, N-[3-fluoro-4-[[6-methoxy-7-(3-morpholinopropoxy)-4-quinolyl]oxy]phenyl]-2-phenyl-thiazole-4-carboxamide]	< 500	< 500
COc1cc2c(Oc3ccc(NC(=O)c4nn(C)cc4Br)cc3F)ccnc2cc1OCCCN1CCOCC1 [Example 39, 4-bromo-N-[3-fluoro-4-[[6-methoxy-7-(3-morpholinopropoxy)-4-quinolyl]oxy]phenyl]-1-methyl-pyrazole-3-carboxamide]	500 to 5000	< 500
COc1cc2c(Oc3ccc(NC(=O)c4ccn(C)n4)cc3F)ccnc2cc1OCCCN1CCOCC1 [Example 40, N-[3-fluoro-4-[[6-methoxy-7-(3-morpholinopropoxy)-4-quinolyl]oxy]phenyl]-1-methyl-pyrazole-3-carboxamide]	500 to 5000	< 500
COc1cc2c(Oc3ccc(NC(=O)c4cc(C)n(C(C)(C)C)n4)cc3F)ccnc2cc1OCCCN1CCOCC1 [Example 41, 1-tert-butyl-N-[3-fluoro-4-[[6-methoxy-7-(3-morpholinopropoxy)-4-quinolyl]oxy]phenyl]-5-methyl-pyrazole-3-carboxamide]	< 500	< 500
COc1cc2c(Oc3ccc(NC(=O)c4cc(C)n(C)n4)cc3F)ccnc2cc1OCCCN1CCOCC1 [Example 42, N-[3-fluoro-4-[[6-methoxy-7-(3-morpholinopropoxy)-4-quinolyl]oxy]phenyl]-1,5-dimethyl-pyrazole-3-carboxamide]	< 500	< 500
CCOc1cn(-c2ccc(F)cc2C)nc1C(=O)Nc1ccc(Oc2ccnc3cc(OCCCN4CCOCC4)c(OC)cc23)c(F)c1 [Example 43, 4-ethoxy-N-[3-fluoro-4-[[6-methoxy-7-(3-morpholinopropoxy)-4-quinolyl]oxy]phenyl]-1-(4-fluoro-2-methyl-phenyl)pyrazole-3-carboxamide]	< 500	< 500
COc1cc2c(Oc3ccc(NC(=O)c4nn(-c5ccc(F)cc5)cc4OC)cc3F)ccnc2cc1OCCCN1CCOCC1 [Example 44, N-[3-fluoro-4-[[6-methoxy-7-(3-morpholinopropoxy)-4-quinolyl]oxy]phenyl]-1-(4-fluorophenyl)-4-methoxy-pyrazole-3-carboxamide]	< 500	< 500
COc1cc2c(Oc3ccc(NC(=O)c4nn(-c5ccc(F)cc5)cc4OC(C)C)cc3F)ccnc2cc1OCCCN1CCOCC1 [Example 45, N-[3-fluoro-4-[[6-methoxy-7-(3-morpholinopropoxy)-4-quinolyl]oxy]phenyl]-1-(4-fluorophenyl)-4-isopropoxy-pyrazole-3-carboxamide]	< 500	< 500
COc1cc2c(Oc3ccc(NC(=O)c4nn(-c5ccc(F)cc5)cc4OCC4CC4)cc3F)ccnc2cc1OCCCN1CCOCC1 [Example 46, 4-(cyclopropylmethoxy)-N-[3-fluoro-4-[[6-methoxy-7-(3-morpholinopropoxy)-4-quinolyl]oxy]phenyl]-1-(4-fluorophenyl)pyrazole-3-carboxamide]	< 500	< 500
